Values after ≈ are worked out from the molar mass of the structure shown. Positions of bridges follow the written chain, without caps; N, C: chain ends. Non-standard residues stand in square brackets, D forms with d. Residues, ends and D or L forms follow the SMILES beside them. Groups on a side chain read outwards from the residue. Chains are numbered I, II in the order given. Dab = NCC[C@H](N)C(=O)O
Columns and labels:
[1] = test system: Pseudomonas aeruginosa (strain PA01); assay: microbe, parasite or virus in culture; format: cell-based; conditions: strain
How it was run: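 Broth microdilution MIC against P. aeruginosa PAO1 in LB: peptides serially diluted by ⅔, bacteria added at OD600 0.001 and incubated 18–24 h at 37 °C. MTT added; MIC is the lowest concentration preventing visible growth.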

[2] = test system: Bacillus subtilis (strain BR151); format: cell-based; conditions: strain BR151
How it was run: (§1)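 Broth microdilution MIC in LB; overnight cultures diluted to OD600 0.001 and mixed 1:1 with ⅔-serially diluted samples (stock 1 mg mL^−1 in H2O), 37° C for 18-24 h. MTT (0.1%) added; MIC read by eye as lowest concentration inhibiting visible growth (yellow).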

[3] = test system: Escherichia coli (strain DH5α); format: cell-based; conditions: DH5α
How it was run: as §1

[4] = test system: Staphylococcus aureus (COL, MRSA reference strain); format: cell-based; conditions: COL, reference strain
How it was run: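 Broth microdilution in Müller-Hinton medium, two-fold serial dilutions from a starting 32–256 μg/mL, compounds dissolved in PBS; inoculum about 5×10^5 CFU, incubated 37° C ~18 h. MIC taken as lowest concentration with no visible growth by eye; polymyxin as reference.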

[5] = test system: B. subtilis BR151; assay: Preliminary resistant development assay (daily MIC for 15 days); format: cell-based, Bacillus subtilis; conditions: bacteria from 1/2 MIC well re-tested daily
Procedure: MICs of compounds for B. subtilis BR151 were determined daily for 15 days using cells from the well in which the compound concentration was one-half the MIC value (½ MIC well). […] The re-suspension was then diluted to 5×10^5 cells/ml in LB Broth (OD600=0.1 then diluted 1:100 fold to get OD600=0.001) and used to again determine the MIC of the same compound to which those cells had previously been exposed. All MIC determinations were done in duplicate.
For an initial estimation of how fast resistances could arise with AMPDs the MIC was repeated for 15 days in a row and determined each day. After obtaining the MIC value in usual broth dilution assay the bacteria (B. subtilis) from the ½ MIC well were incubated for 2-5 hours and the dilution assay was repeated. This procedure was realized for 15 days and the MICs of each day compared. In case of an increase of the MIC, it is indicative for a resistance against the AMPDs.

[6] = 5(6)-Carboxyfluorescein leakage from lipid vesicles; conditions: 10 mM TRIS, 107 mM NaCl, pH 7.4; peptide added at 50 s
Procedure: (§2) Preparation A thin lipid film was prepared by evaporating a solution of 25 mg Egg PC or Egg PG in 1 mL MeOH/CHCl3 1/1 on a rotary evaporator (rt) and then in vacuo overnight. The resulting film was hydrated with 1 mL buffer (50 mM CF, 10 mM TIRS, 10 mM NaCl, pH 7.4) for 30 min, subjected to freeze-thaw cycles (7×) and extrusion (15×) through a polycarbonate membrane (pore size 100 nm). Extravesicular components were removed by gel filtration (Sephadex G-50) with 10 mM TRIS, 107 mM NaCl, pH 7.4. Final conditions: ˜2.5 mM Egg PC or Egg PG; inside: 50 mM CF, 10 mM TIRS, 10 mM NaCl, pH 7.4; outside: 10 mM TRIS, 107 mM NaCl, pH 7.4.
(§3) Experiment Egg PC or Egg PG stock solutions (37.5 μL) were diluted with a buffer (10 mM TRIS, 107 mM NaCl, pH 7.4) and placed in a thermostated fluorescence cuvette (25° C.) and gently stirred (total volume in the cuvette ˜3000 μL; final lipid concentration ˜31.25 μM). CF efflux was monitored at λem 517 nm (λex 492 nm) as a function of time after addition of 20 μL of peptide dendrimer in buffer (10 mM TRIS, 107 mM NaCl, pH 7.4) with final concentrations of 1, 5, 7.5, 10, 15, 20, 25, 30 μg/mL at t=50 s and 1.2% trition X-100 (30 μL, 0.012% final concentration) at t=300 s. Fluorescence intensities were normalized to fractional emission intensity I(t) using I(t)=(It−I0)/(I∞−I0) where I0 It at peptide dendrimer addition, I∞=It at saturation of lysis.
Bacterial membranes contain relatively large amounts of exposed anionic lipids, while the outer leaflet of the membranes of plants and animals is composed mainly of lipids with no net charge. The charge composition of such membranes can be mimicked with phospholipid vesicles. Large unilamellar vesicles (LUVs) composed of the neutral phospholipid with PC (phosphatidyl choline) or with PG (phosphatidyl glycerol) with negative charges were prepared encapsulating 5(6)-carboxyfluorescein (CF). […] The higher the concentration of MSt-112 the higher is the CF leakage (FIG. 6A). […] Overall the active AMPDs interact with the negatively charged membrane and release the CF.

[7] = as above; conditions: 10 mM TRIS, 107 mM NaCl, pH 7.4; peptide added at 50 s; remark: listed apart in the source
Procedure: as §2, §3

NCC[C@H](NC(=O)[C@H](CCCCNC(=O)[C@H](Cc1c[nH]c2ccccc12)NC(=O)[C@H](CCN)NC(=O)[C@H](CCCCNC(=O)[C@H](Cc1c[nH]c2ccccc12)NC(=O)[C@@H](N)CCN)NC(=O)[C@H](Cc1c[nH]c2ccccc12)NC(=O)[C@@H](N)CCN)NC(=O)[C@H](Cc1c[nH]c2ccccc12)NC(=O)[C@H](CCN)NC(=O)[C@H](CCCCNC(=O)[C@H](Cc1c[nH]c2ccccc12)NC(=O)[C@@H](N)CCN)NC(=O)[C@H](Cc1c[nH]c2ccccc12)NC(=O)[C@@H](N)CCN)C(=O)N[C@@H](Cc1c[nH]c2ccccc12)C(N)=O [MSt-176, (DabW)4(KDabW)2(KDabW)] (I: H-[Dab]WK([Trp-Dab])[Dab]WK[Dab]W-NH2 / II: H-[Dab]WK([Trp-Dab])[Dab]W; amide I:6-II:C; N-terminus assumed)
MIC P. aeruginosa PAO1 [1]: 1 µg/mL (≈ 0.416 µM)
MIC B. subtilis BR151 [2]: 1 µg/mL (≈ 0.416 µM)
MIC E. coli DH5α [3]: 3 µg/mL (≈ 1.25 µM)
MIC S. aureus (COL, MRSA reference strain) [4]: below 20 μg/mL
change of MIC over 15 days (resistance) [5]: did not have a significant change of their MIC values over 15 days
CF leakage from phosphatidylglycerol LUVs [6]: immediate leakage of CF
CF leakage from phosphatidylcholine LUVs [7]: induced CF release

Reference: US10336792B2, “Antimicrobial peptide dendrimers” (priority 2014, dated 2019)
